Laboratory results from paper PMC6181319, “Thermodynamic and computational analyses reveal the functional roles of the galloyl group of tea catechins in molecular recognition” (PLoS ONE, 2018).
Where two headings read alike, the source gives them in different places.

Tests used:
[1] = biological target: T1, human serum albumin (HSA) (Homo sapiens, UniProt P02768); test: Differential scanning calorimetry (DSC), thermal stability of HSA–ligand complexes; conditions: for Tm: DSC, HSA 50 μM, ligand 500 μM, 50 mM sodium phosphate pH 6.8, HSA alone 68.6 ± 0.1; for ΔTm at 500 µM: human, pH 6.8
T1 sequence (P02768 25-609): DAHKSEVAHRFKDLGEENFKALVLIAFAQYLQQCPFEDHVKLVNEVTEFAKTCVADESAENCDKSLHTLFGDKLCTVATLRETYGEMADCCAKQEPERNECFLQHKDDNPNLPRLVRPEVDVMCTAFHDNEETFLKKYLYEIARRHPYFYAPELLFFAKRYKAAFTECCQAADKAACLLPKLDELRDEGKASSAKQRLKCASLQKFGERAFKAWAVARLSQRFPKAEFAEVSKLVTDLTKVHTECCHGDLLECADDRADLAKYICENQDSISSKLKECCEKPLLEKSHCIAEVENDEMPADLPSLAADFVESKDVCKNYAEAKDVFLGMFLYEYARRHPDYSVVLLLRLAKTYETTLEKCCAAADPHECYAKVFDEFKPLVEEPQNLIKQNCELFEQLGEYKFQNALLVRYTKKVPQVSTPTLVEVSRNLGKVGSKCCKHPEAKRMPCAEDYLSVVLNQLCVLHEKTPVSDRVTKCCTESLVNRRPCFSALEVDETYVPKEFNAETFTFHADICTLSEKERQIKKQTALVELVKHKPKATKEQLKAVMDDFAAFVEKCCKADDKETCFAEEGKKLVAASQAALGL
Procedure: The thermal stabilities of HSA and the HSA–ligand complexes were determined by differential scanning calorimetry in a VP-DSC autosampler instrument (GE Healthcare). The cell was heated from 303 to 363 K at a rate of 1 K min^−1. The concentrations of HSA and the ligands were 50 and 500 μM, respectively, in a buffer composed of 50 mM sodium phosphate (pH 6.8). The data analysis was carried out with the Origin software (ver. 7) using a two-state model.

site I of HSA = biological target: T2, site I of HSA (Homo sapiens, UniProt P02768); test: ITC competition assay with warfarin (site I marker); assay type: binding; conditions: HSA 50 μM, catechin 500 μM, warfarin 500 μM titrated, pH 6.8, 1% DMSO
T2 construct: purchased Sigma-Aldrich Japan (Tokyo, Japan)
T2 sequence (P02768 25-609): as above
Procedure: To obtain information about the HSA binding site of catechins, we carried out competition assays using ITC. Warfarin was used as a marker for monitoring site I of HSA. […] Warfarin was titrated into the cell containing either HSA or an HSA-EGCg complex at 180-s intervals with constant stirring at 307 rpm. The total amount of heat obtained for each measurement was taken as the total heat quantity (ΔQ), and we verified whether warfarin and the catechins bound to the same site by comparing the ΔQ from the interaction between HSA and warfarin. The binding inhibition rate was defined by the equation belowcalculated as follows: […]

[2] = biological target: T1, human serum albumin (HSA); test: Isothermal titration calorimetry (ITC) of binding of catechins and analogs to HSA; set-up: purchased Sigma-Aldrich Japan (Tokyo, Japan); conditions: for change of binding affinity with addition of 0.2 M NaCl: 0.2 M NaCl versus no NaCl
Procedure: The binding of the catechins and its analogs to HSA was examined in a VP-ITC instrument (Microcal Northampton, MA). […] The data were analyzed with the Origin software (ver. 7) by means of a single-binding-site model. The thermodynamic parameters were obtained from three replicate titrations, where the dilution heats of the ligands were subtracted.

[3] = Table 1, ITC, 298 K, 50 mM sodium phosphate pH 6.8
[4] = Table 1, ITC, 298 K, 50 mM sodium phosphate pH 6.8, HSA 50 μM, single-binding-site model
[5] = Table 2, methylated catechin derivatives, ITC, 298 K

O=C(O[C@@H]1Cc2c(O)cc(O)cc2O[C@@H]1c1cc(O)c(O)c(O)c1)c1cc(O)c(O)c(O)c1 [EGCg, (−)-epigallocatechin gallate]
Tm [1]: 71.4 ± 0.3 °C
ΔTm at 500 µM ([1]; human serum albumin (HSA) 50 µM in buffer): 2.7 °C
binding site compared with warfarin (site I of HSA): identical
change of binding affinity with addition of 0.2 M NaCl ([2]; ITC): decreased
thermodynamic profile of binding (enthalpy-driven or entropy-driven) ([2]; ITC, 298 K): enthalpy-driven
Kd ([2]; S1 Table, ITC binding affinity listed beside Tm, read-out: KD): 2200 ± 300 nM
Kd ([2]; S2 Table, NaCl 0.2 M, read-out: KD): 27300 nM
N ([2]; S3 Table, temperature 288 K): 1.1±0.1
ΔG ([2]; S3 Table, temperature 288 K): -7.4 ± 0.1 kcal/mol
ΔH ([2]; S3 Table, temperature 288 K): -3.9 ± 0.5 kcal/mol
−TΔS ([2]; S3 Table, temperature 288 K): -3.5 ± 0.5 kcal/mol
Kd ([2]; S3 Table, temperature 288 K, read-out: KD): 2300 ± 100 nM
N ([2]; S3 Table, temperature 293 K): 1.1±0.1
ΔG ([2]; S3 Table, temperature 293 K): -7.6 ± 0.7 kcal/mol
ΔH ([2]; S3 Table, temperature 293 K): -4.7 ± 0.7 kcal/mol
−TΔS ([2]; S3 Table, temperature 293 K): -2.9 ± 0.8 kcal/mol
Kd ([2]; S3 Table, temperature 293 K, read-out: KD): 2100 ± 700 nM
N ([2]; S3 Table, temperature 298 K): 1.1±0.1
ΔG ([2]; S3 Table, temperature 298 K): -7.8 ± 0.4 kcal/mol
ΔH ([2]; S3 Table, temperature 298 K): -5.7 ± 0.7 kcal/mol
−TΔS ([2]; S3 Table, temperature 298 K): -2.1 ± 0.6 kcal/mol
Kd ([2]; S3 Table, temperature 298 K, read-out: KD): 2000 ± 400 nM
N ([2]; S3 Table, temperature 303 K): 1.1±0.1
ΔG ([2]; S3 Table, temperature 303 K): -7.9 ± 0.8 kcal/mol
ΔH ([2]; S3 Table, temperature 303 K): -6.1 ± 0.2 kcal/mol
−TΔS ([2]; S3 Table, temperature 303 K): -1.8 ± 0.3 kcal/mol
Kd ([2]; S3 Table, temperature 303 K, read-out: KD): 2100 ± 800 nM
ΔH/ΔG ([2]; Table 1, ITC, 298 K): 61%
ΔG [2, 3]: -7.7 ± 0.1 kcal/mol
ΔH [2, 3]: -4.7 ± 0.6 kcal/mol
−TΔS [2, 3]: -3.0 ± 0.6 kcal/mol
N (number of binding sites) [2, 4]: 1.1 ± 0.1
Kd ([2]; Table 1, ITC, 298 K, 50 mM sodium phosphate pH 6.8, read-out: KD): 2200 ± 300 nM
ΔG [2, 5]: -7.7 ± 0.1 kcal/mol
−TΔS [2, 5]: -3.0 ± 0.6 kcal/mol
N (number of binding sites) ([2]; Table 2, methylated catechin derivatives, ITC, 298 K, 50 mM sodium phosphate pH 6.8): 1.1 ± 0.1
Kd ([2]; Table 2, methylated catechin derivatives, ITC, 298 K, 50 mM sodium phosphate pH 6.8, read-out: KD): 2200 ± 300 nM
ΔCp (change in heat capacity) ([2]; slope of ΔH versus temperature, 288 to 303 K): −148 cal mol^−1 K^−1

Oc1cc(O)c2c(c1)O[C@H](c1cc(O)c(O)c(O)c1)[C@H](O)C2 [EGC, (−)-epigallocatechin]
Tm [1]: 68.8± 0.2 °C
ΔTm at 500 µM [1]: 0.2 °C
binding site compared with warfarin (site I of HSA): identical
change of binding affinity with addition of 0.2 M NaCl ([2]; ITC): increased
thermodynamic profile of binding (enthalpy-driven or entropy-driven) ([2]; ITC, 298 K): entropy-driven
Kd ([2]; KD, S1 Table, ITC binding affinity listed beside Tm): 20000 ± 16000 nM
Kd ([2]; KD, S2 Table, NaCl 0 M): 19500 nM
Kd ([2]; KD, S2 Table, NaCl 0.2 M): 6700 nM
Kd ([2]; KD, Table 1, ITC, 298 K, 50 mM sodium phosphate pH 6.8): 20000 ± 16000 nM
ΔH/ΔG ([2]; Table 1, ITC, 298 K): 10%
ΔG [2, 3]: -6.3 ± 0.4 kcal/mol
ΔH [2, 3]: -0.6 ± 0.4 kcal/mol
−TΔS [2, 3]: -5.8 ± 0.7 kcal/mol
N (number of binding sites) [2, 4]: 1.0 ± 0.2
